Test results as given in ChEMBL document CHEMBL3997849, “Modulation of the Inhibitors of Apoptosis Proteins (IAPs) Activities for Cancer Treatment” (ACS Med Chem Lett, 2017).

Key:
[1] = Inhibition of His-tagged XIAP BIR2-3 (125 to 356 residues) C202A/C213G double mutant (unknown origin) using fluorescein labeled SMAC peptide as substrate after 60 mins by HTRF assay; design: species or system Homo sapiens
[2] = target: E3 ubiquitin-protein ligase XIAP (Homo sapiens, UniProt P98170); assay: Inhibition of His-tagged XIAP BIR3 (241 to 356 residues) (unknown origin) using fluorescein labeled SMAC peptide as substrate after 60 mins by HTRF assay
Chain of E3 ubiquitin-protein ligase XIAP (P98170 whole entry, the tested form may be a part): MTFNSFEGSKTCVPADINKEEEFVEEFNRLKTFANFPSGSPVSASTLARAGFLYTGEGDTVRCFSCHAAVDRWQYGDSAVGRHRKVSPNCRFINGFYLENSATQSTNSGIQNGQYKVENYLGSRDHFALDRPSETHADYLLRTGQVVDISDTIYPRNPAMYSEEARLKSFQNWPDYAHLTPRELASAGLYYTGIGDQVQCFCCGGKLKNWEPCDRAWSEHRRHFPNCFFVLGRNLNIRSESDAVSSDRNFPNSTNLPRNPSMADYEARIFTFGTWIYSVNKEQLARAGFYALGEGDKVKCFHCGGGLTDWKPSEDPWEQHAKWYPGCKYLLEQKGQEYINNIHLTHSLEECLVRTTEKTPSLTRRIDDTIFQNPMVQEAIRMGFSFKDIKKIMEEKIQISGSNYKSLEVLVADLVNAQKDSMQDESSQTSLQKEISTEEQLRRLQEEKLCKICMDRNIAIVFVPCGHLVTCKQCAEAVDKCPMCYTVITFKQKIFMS

IC50 [1] [nM]	IC50 [2] [nM]	SMILES
9.5	119	CN[C@@H](C)C(=O)N[C@H](C(=O)NC(Cc1ccc(NC(=O)c2ccc(C(=O)NC3C[C@@H](C(=O)N[C@@H]4CCCc5ccccc54)N(C(=O)[C@@H](NC(=O)[C@H](C)NC)C(C)(C)C)C3)cc2)cc1)C(=O)N[C@@H]1CCCc2ccccc21)C(C)(C)C (stereo partly specified)
6.8	–	CN[C@@H](C)C(=O)N[C@H](C(=O)N[C@@H](Cc1ccc([C@H]2C[C@@H](C(=O)N[C@@H]3CCCc4ccccc43)N(C(=O)[C@@H](NC(=O)[C@H](C)NC)C(C)(C)C)C2)cc1)C(=O)N[C@@H]1CCCc2ccccc21)C(C)(C)C
12.3	–	CN[C@@H](C)C(=O)N[C@H](C(=O)N1C[C@@H](c2ccc(C[C@H](NC(=O)[C@@H](NC(=O)[C@H](C)NC)C(C)(C)SCC(=O)N(C)C[C@@H](O)CO)C(=O)N[C@@H]3CCCc4ccccc43)cc2)C[C@H]1C(=O)N[C@@H]1CCCc2ccccc21)C(C)(C)C
8.1	1.4	CN[C@@H](C)C(=O)N[C@H](C(=O)N1C[C@@H](c2ccc(CC(NC(=O)[C@@H](NC(=O)[C@H](C)NC)C(C)(C)SCC(=O)NC(CO)CO)C(=O)N[C@@H]3CCCc4ccccc43)cc2)C[C@H]1C(=O)N[C@@H]1CCCc2ccccc21)C(C)(C)C (stereo partly specified)
